The values that follow come from patent KR20210050472A, “에독사반염 및 이를 포함하는 약제학적 조성물” (priority 2019, dated 2021).

The structures appear in SMILES notation. Like-named read-outs stand apart in the source and are kept apart here.

Data set [1] is described as follows: Heat stability test (Test Example 1), crystal form retention at 40±2℃, 75±5% RH. In kind it is physicochemical. The following applies: for stability of crystal form: 40℃/75% RH.
A short description of data set [2]: Stability test in pH solutions (Test Example 2), related substances by HPLC. Format: physicochemical. Conditions: for degraded: read-out: amount of related substances generated.
The mark [3] stands for this setting: 40℃, 75% RH, from week 8 of the stability test.

For the molecule `CN1CCc2nc(C(=O)N[C@@H]3C[C@@H](C(=O)N(C)C)CC[C@@H]3NC(=O)C(=O)Nc3ccc(Cl)cn3)sc2C1` [벤젠술폰산염 결정형 Ⅰ형, 에독사반 벤젠술폰산염 결정형 Ⅰ형], the “stability of crystal form” value in data set [1] (8 weeks, 벤젠술폰산염) is given as “결정형 유지”; in data set [1] (16 weeks), “결정형 유지”; in data set [1] (24 weeks, 벤젠술폰산염), “결정형 유지”.

`CN1CCc2nc(C(=O)N[C@@H]3C[C@@H](C(=O)N(C)C)CC[C@@H]3NC(=O)C(=O)Nc3ccc(Cl)cn3)sc2C1` [에디실산염 수화물 결정형, 에독사반 에디실산염 수화물 결정형]: the “change in crystal form and appearance” value in data set [1] (40℃, 75% RH, over 24 weeks) is “결정형의 변화 및 성상의 변화가 발생하지 않아”. Further, the “stability of crystal form” value in data set [1] (8 weeks, 에디실산염 수화물) is listed as “결정형 유지”; in data set [1] (16 weeks), “결정형 유지”; in data set [1] (24 weeks, 에디실산염 수화물) it was “결정형 유지”. For the same molecule, the degraded in data set [2] (distilled water (DW)) came to 0.18%; in data set [2] (pH 1.2), 19.3%; in data set [2] (pH 7.8) it was 11.4%. Besides, in data set [2] (pH 7.8 solution), the “total related substances generated, reduction versus tosylate hydrate” value is reported as roughly 4.5%. In data set [2] (solutions of DW, pH 1.2 and pH 7.8), the “total related substances generated, compared with tosylate hydrate” value was “총유연물질이 적게 발생”.

With `CN1CCc2nc(C(=O)N[C@@H]3C[C@@H](C(=O)N(C)C)CC[C@@H]3NC(=O)C(=O)Nc3ccc(Cl)cn3)sc2C1` [벤젠술폰산염 결정형 Ⅱ형, 에독사반 벤젠술폰산염 결정형 Ⅱ형, reference compound], in data set [1] (setting [3]), the “change of crystal form” value is recorded as “일부가 결정형 Ⅰ으로 변화” and the “change of endothermic point by differential scanning calorimetry” value is “결정형 Ⅰ형의 흡열점이 관찰”. Besides, in data set [1] (8 weeks, 벤젠술폰산염), the “stability of crystal form” value was “일부 결정형 Ⅰ형으로 변화”.

As to `CN1CCc2nc(C(=O)N[C@@H]3C[C@@H](C(=O)N(C)C)CC[C@@H]3NC(=O)C(=O)Nc3ccc(Cl)cn3)sc2C1` [말산염 결정형, 에독사반 말산염 결정형, reference compound], the “change in appearance and powder X-ray diffraction values” in data set [1] (40℃, 75% RH, week 24) is “성상 변화 및 분말 X선 회절 값이 변화”. The “stability of crystal form” value in data set [1] (8 weeks, 말산염) was “결정형 유지”; in data set [1] (24 weeks, 말산염) it was “결정형 변화”.
